Measured values published in patent US12310963B2, “Pyrazole derivatives and use thereof” (Tarapeutics Science Inc., priority 2019, dated 2025).

Legend:
BaF3 = assay: Growth of parental BaF3 cells, Cell Titer-Glo, 72 h; assay type: cell-based; conditions: Mus musculus
From the text: (§1) In this example, mouse primary B cell BaF3 (purchased from ATCC, U.S.A.) was used. In addition, in this example, mouse BaF3-tel-PDGFRα (stably expressing PDGFRα kinase), mouse BaF3-tel-PDGFRβ (stably expressing PDGFRβ kinase), BaF3-P210 (stably expressing ABL kinase), BaF3-P210-T315I (stably expressing ABL-T315I kinase), BaF3-FL-BRAF-V600E (stably expressing BRAF-V600E kinase), BaF3-TEL-cKIT (stably expressing cKIT kinase), BaF3-TEL-VEGFR2 (stably expressing VEGFR2 kinase), BaF3-TEL-FGFR2 (stably expressing FGFR2 kinase) were also used. The above-mentioned cell trains were all constructed in our laboratory by the method as follows. The sequences of human BCR-ABL (P210 or P210/T315I mutated), full-length BRAF-V600E, cKIT, VEGFR2, FGFR2, PDGFRα, PDGFRβ kinase region were amplified respectively via PCR, and inserted respectively into a MSCV-Puro vector (purchased from Clontech) having a N-terminal TEL fragment and/or NPM fragment and/or TPR fragment, and stably transferred into mouse BaF3 cells by the retroviral method, and the growth factor IL-3 was removed. Eventually, cell lines which are transferred into proteins depending on PDGFRα, PDGFRβ were obtained.
(§2) In this example, solutions of the test compound at different concentrations (0.000508 μM, 0.00152 μM, 0.00457 μM, 0.0137 μM, 0.0411 μM, 0.123 μM, 0.370 μM, 1.11 μM, 3.33 μM, 10 μM) were added to the above cells. The cells were incubated for 72 hours.

[1] = system: BaF3-tel-PDGFRβ (stably expressing PDGFRβ kinase); assay: Growth of BaF3-tel-PDGFRβ cells, Cell Titer-Glo, 72 h; assay type: cell-based, mouse
From the text: as §1, §2

[2] = system: BaF3-tel-PDGFRα (stably expressing PDGFRα kinase); assay: Growth of BaF3-tel-PDGFRα cells, Cell Titer-Glo, 72 h; assay type: cell-based, mouse
From the text: as §1, §2

Row | SMILES | GI50 [1] [µM] | GI50 [2] [µM] | GI50 (BaF3) [µM]
1 | Cc1ccc(NC(=O)c2cccc(Cl)n2)cc1-n1cc(-c2cncc(N3CCN(C)CC3)c2)nn1 [Compound 22, 6-chloro-N-(4-methyl-3-(4-(5-(4-methylpiperazin-1-yl)pyridin-3-yl)-1H-1,2,3-triazol-1-yl)phenyl)picolinamide] | < 0.01 | < 0.01 | 0.96
2 | Cc1ccc(NC(=O)c2cccc(Cl)n2)cc1-n1cc(-c2cncc(N3CCN(C)CC3)c2)cn1 [Compound 17, 6-chloro-N-(4-methyl-3-(4-(5-(4-methylpiperazin-1-yl)pyridin-3-yl)-1H-pyrazol-1-yl)phenyl)picolinamide] | < 0.0015 | < 0.0015 | 2.8
3 | Cc1ccc(NC(=O)c2cc(C(F)(F)F)ccn2)cc1-n1cc(-c2cncc(N3CC4(COC4)C3)c2)cn1 [Compound 35, N-(3-(4-(5-(2-oxa-6-aza-spiro[3.3]hept-6-yl]pyridin-3-yl)-1H-pyrazol-1-yl)-4-methylphenyl)-4-(trifluoromethyl)picolinamide] | < 0.01 | < 0.01 | 5.84
4 | CN1CCN(c2cncc(-c3cn(-c4cc(NC(=O)c5cccc(C(F)(F)F)n5)ccc4F)nn3)c2)CC1 [Compound 24, N-(4-fluoro-3-(4-(5-(4-methylpiperazin-1-yl)pyridin-3-yl)-1H-1,2,3-triazol-1-yl)phenyl)-6-(trifluoromethyl)picolinamide] | < 0.01 | < 0.01 | 4.76
5 | Cc1ccc(NC(=O)c2cncc(C(F)(F)F)c2)cc1-n1cc(-c2cncc(N3CC4(COC4)C3)c2)cn1 [Compound 34, N-(3-(4-(5-(2-oxa-6-aza-spiro[3.3]hept-6-yl]pyridin-3-yl)-1H-pyrazol-1-yl)-4-methylphenyl)-5-(trifluoromethyl)nicotinamide] | < 0.01 | < 0.01 | > 10
6 | Cc1ccc(NC(=O)c2cccc(C(F)(F)F)n2)cc1-n1cc(-c2cnccc2OCC2CCCC2)cn1 [Compound 10, N-(3-(4-(4-(cyclopentylmethoxy)pyridin-3-yl)-1H-pyrazol-1-yl)-4-methylphenyl)-6-(trifluoromethyl)picolinamide] | 0.062 | – | > 10

Further lines, with some results ahead:

Row | GI50 [1] [µM] | GI50 [2] [µM] | SMILES | GI50 (BaF3) [µM]
7 | 0.0011 | – | Cc1ccc(NC(=O)c2ccnc(C(F)(F)F)c2)cc1-n1cc(-c2cnccc2OCC2CCCC2)cn1 [Compound 11, N-(3-(4-(4-(cyclopentylmethoxy)pyridin-3-yl)-1H-pyrazol-1-yl)-4-methylphenyl)-2-(trifluoromethyl)isonicotinamide] | > 10
8 | 0.001 | – | Cc1ccc(NC(=O)c2ccnc(C(F)(F)F)c2)cc1-n1cc(-c2cncc(N3CCOCC3)c2)cn1 [Compound 12, N-(4-methyl-3-(4-(5-morpholinopyridin-3-yl)-1H-pyrazol-1-yl)phenyl)-2 (trifluoromethyl)isonicotinamide] | ~10
9 | 0.0014 | 0.0014 | Cc1ccc(NC(=O)c2ccnc(C(F)(F)F)c2)cc1-n1cc(-c2cnccc2OCC2CCOCC2)cn1 [Compound 3, N-(4-methyl-3-(4-(4-((tetrahydropyran-4-yl)methoxy)pyridin-3-yl)-1H-pyrazol-1-yl)phenyl)-2-(trifluoromethyl)isonicotinamide] | 6.5
10 | < 0.0003 | – | Cc1ccc(NC(=O)c2ccnc(C(F)(F)F)c2)cc1-n1cc(-c2cnccc2OCC2CCCO2)cn1 (stereo not shown) [Compound 9, N-(4-methyl-3-(4-(4-((tetrahydrofuran-2-yl)methoxy)pyridin-3-yl)-1H-pyrazol-1-yl)phenyl)-2-(trifluoromethyl)isonicotinamide] | > 10
11 | 0.0013 | – | Cc1ccc(NC(=O)c2cccc(C(F)(F)F)n2)cc1-n1cc(-c2cnccc2OCC2CCCO2)cn1 (stereo not shown) [Compound 8, N-(4-methyl-3-(4-(4-((tetrahydrofuran-2-yl)methoxy)pyridin-3-yl)-1H-pyrazol-1-yl)phenyl)-6-(trifluoromethyl)picolinamide] | > 10
